The values that follow come from patent publication US20250206722A1, “SMALL MOLECULE INHIBITORS OF TEA DOMAIN FAMILY MEMBERS” (The Scripps Research Institute, priority 2022, published 2025).

The test system of assay [1] is NCI-H226 cells. Put plainly: NCI-H226 proliferation assay (in house). It counts as cell-based. The note with it: Homo sapiens, 120 h, 5 days, Cell TiterGlo, 20-point 1:2 dilution from 20 μM. The procedure:
NCI-H226 Proliferation Assay
NCI-H226 cells were obtained from American Type Culture Collection (ATCC, CRL-5826) and cultured in RPMI 1640 with L-glutamine (Corning, 10-040-CV) supplemented with 10% fetal bovine serum (Gibco, 10438-026) and 1% penicillin-streptomycin (Gibco, 15070063). Cells were trypsinized, resuspended in growth medium, and diluted to a concentrated of 10,000 cells/mL. 500 cells, 50 μL of cell suspension, per well were then plated in a white 384-well plate (Corning) and incubated at 37° C., 5% CO2. After 24 hours incubation, 100 nL of test compounds in DMSO, 20-point 1:2 dilution starting from 20 μM (final concentration) in triplicate, were transferred to each well using an Agilent Bravo instrument outfitted with a pintool head. Cells were incubated at 37° C., 5% CO2 for 5 days followed by the addition of 30 μL of Cell TiterGlo (Promega; diluted 1:6 in water) to each well and luminescence values recorded using an EnVision plate reader. […]

The test system of assay [2] is transcriptional activity of TEADs. Briefly: TEAD reporter assay (MCF7 TEAD-LUC reporter cells). It counts as cell-based. The note with it: Homo sapiens, 24 hours, BrightGlo luminescence. The procedure:
MCF7 TEAD-LUC reporter cells were obtained from BPS Bioscience, Inc. and cultured in DMEM medium (Corning, 10-013-CV) supplemented with 10% fetal bovine serum (Gibco, 10438-026), 1% penicillin-streptomycin (Gibco, 15070063), 1% non-essential amino acids (Gibco, 15070063), and 10 μg/mL insulin (Sigma, 10516). Cells were trypsinized, resuspended in growth medium, and diluted to a concentrated of 100,000 cells/mL. 5,000 cells, 50 μL of cell suspension, per well were then plated in a white 384-well plate (Corning) and incubated at 37° C., 5% CO2. After 24 hours incubation, 100 nL of test compounds in DMSO, 20-point 1:2 dilution starting from 20 μM (final concentration) in triplicate, were transferred to each well using an Agilent Bravo instrument outfitted with a pintool head. Cells were incubated at 37° C., 5% CO2 for 24 hours followed by the addition of 30 μL of BrightGlo (Promega; diluted 1:3 in water) to each well and luminescence values recorded using an EnVision plate reader.
The in vitro assay results of the compounds in the present invention were included in Table 1. The compounds described herein, inhibited the transcriptional activity of TEADs, as assessed by decreased luminance from a TEAD reporter cell line (MCF7 TEAD-LUC) in response to compound treatment.

Turning to `C=CC(=O)N1CCN(c2ncc(O)nc2Nc2ccc(C(F)(F)F)cc2)CC1` [Example 111, 1-(4-(5-hydroxy-3-((4-(trifluoromethyl)phenyl)amino)pyrazin-2-yl)piperazin-1-yl)prop-2-en-1-one], the IC50 was determined as 5.64 µM in assay [1] and 239 nM in assay [2].
For the compound `C=C(F)C(=O)N1CC(Nc2nccnc2Nc2ccc(OC(F)(F)F)nc2)C1` [Example 64, 2-fluoro-1-(3-((3-((6-(trifluoromethoxy)pyridin-3-yl)amino)pyrazin-2-yl)amino)azetidin-1-yl)prop-2-en-1-one], the IC50 stood at 3.12 µM in assay [1] and 1680 nM in assay [2].
Regarding `C=CC(=O)N1CCN(c2nccnc2Cc2ccc(C(F)(F)F)cc2)CC1` [Example 98, 1-(4-(3-(4-(trifluoromethyl)benzyl)pyrazin-2-yl)piperazin-1-yl)prop-2-en-1-one], the IC50 in assay [1] was 0.012 µM; in assay [2], 0.9 nM.
As for `C=CC(=O)N1CCN(c2nccnc2C(=O)NC2CCC2)CC1` [Example 99, 3-(4-acryloylpiperazin-1-yl)-N-cyclobutylpyrazine-2-carboxamide], the half-inhibitory concentration (IC50) turned out to be 2.08 µM in assay [1] and 142 nM in assay [2].
For `C=CC(=O)N1CC=C(c2nccnc2Oc2ccc(C(F)(F)F)nc2)CC1` [Example 84, 1-(4-(3-((6-(trifluoromethyl)pyridin-3-yl)oxy)pyrazin-2-yl)-3,6-dihydropyridin-1(2H)-yl)prop-2-en-1-one] the same measures were 0.0173 µM and 1.4 nM.
In the same order, the values of `C=CC(=O)N1CCN(c2nc(OC)ncc2Nc2ccc(C(F)(F)F)cc2)CC1` [Example 133, 1-(4-(2-methoxy-5-((4-(trifluoromethyl)phenyl)amino)pyrimidin-4-yl)piperazin-1-yl)prop-2-en-1-one] are 0.722 µM and 16.5 nM.
For `C=CC(=O)N1CCC(n2ccc(C(=O)c3ccc(C(F)(F)F)cc3)n2)CC1` [Example 163, 1-(4-(3-(4-(trifluoromethyl)benzoyl)-1H-pyrazol-1-yl)piperidin-1-yl)prop-2-en-1-one] the same measures were 5 µM and 10000 nM.
As to `C=C(F)C(=O)NCC1CN(c2ccc(C(F)(F)F)nc2)c2nccnc2N1` (centres unmarked) [Example 194], the IC50 was over 20 µM in assay [1] and 238 nM in assay [2].
In the same order, the values of `C=CC(=O)N1CCC(c2cnc(C)nc2Oc2ccc(C(F)(F)F)nc2)CC1` [Example 131, 1-(4-(2-methyl-4-((6-(trifluoromethyl)pyridin-3-yl)oxy)pyrimidin-5-yl)piperidin-1-yl)prop-2-en-1-one] are 2.25 µM and 598 nM.
For the compound `C=CC(=O)N1CCC(c2nccnc2Nc2ccc(C(F)(F)F)nc2)CC1` [Example 61, 1-(4-(3-((6-(trifluoromethyl)pyridin-3-yl)amino)pyrazin-2-yl)piperidin-1-yl)prop-2-en-1-one], the IC50 in assay [1] came to 0.257 µM; in assay [2], 5 nM.
For `C=C(F)C(=O)N1CCC(c2cccnc2Oc2ccc(C(F)(F)F)nc2)CC1` [Example 156, 2-fluoro-1-(4-(2-((6-(trifluoromethyl)pyridin-3-yl)oxy)pyridin-3-yl)piperidin-1-yl)prop-2-en-1-one], the results for the IC50 in assay [1] and in assay [2] were 0.083 µM and 13.7 nM, respectively.
On to `C=CC(=O)N1CCN(c2nccnc2Nc2ccc(C(F)(F)F)nc2)C[C@@H]1C` [Example 53, (S)-1-(2-methyl-4-(3-((6-(trifluoromethyl)pyridin-3-yl)amino)pyrazin-2-yl)piperazin-1-yl)prop-2-en-1-one], for which the IC50 in assay [1] stood at 0.076 µM; in assay [2], 3.6 nM.
For `C=C(F)C(=O)N1CCN(c2nccnc2NC2C3CC2C3C(F)(F)F)CC1` (centres unmarked) [Example 68, 2-fluoro-1-(4-(3-((4-(trifluoromethyl)bicyclo[1.1.1]pentan-2-yl)amino)pyrazin-2-yl)piperazin-1-yl)prop-2-en-1-one] the same measures were 0.708 µM and 11 nM.
